“And” between values parts separate entries of the source, which are not always exact repeats. Equal values may be shown once.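 Step 1: Grow cells in 96-well plates. Step 2: Expose to compound for 48 hours at 5 concentrations. Step 3: Interpolate endpoints linearly; if unreached, use highest concentration. Abbreviation: GI50, concentration required for 50% inhibition of growth. TGI is the concentration that stops growth completely.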
Experiments:
Assay in all cases: growth of human tumour cells (NCI), 48 h
[1] = test system: UACC-257 melanoma
[2] = test system: SF-295 CNS
[3] = test system: HCT-15 colon
[4] = test system: NCI-H460 lung
[5] = test system: SR leukemia
[6] = test system: COLO 205 colon
[7] = test system: UO-31 renal
[8] = test system: SK-MEL-5 melanoma
[9] = test system: IGROV1 ovarian
[10] = test system: NCI-H23 lung

| Structure (SMILES) | GI50 [1] [µM] | TGI [1] | GI50 [2] [µM] | TGI [2] | GI50 [3] | TGI [3] | GI50 [4] [µM] | TGI [4] | GI50 [5] [µM] | TGI [5] | GI50 [6] [µM] | TGI [6] | GI50 [7] [µM] | TGI [7] | GI50 [8] | TGI [8] | GI50 [9] [µM] | TGI [9] | GI50 [10] | TGI [10] |
| --- | --- | --- | --- | --- | --- | --- | --- | --- | --- | --- | --- | --- | --- | --- | --- | --- | --- | --- | --- | --- |
| COc1ccc(CC(C)C(C)Cc2ccc(OC)c(OC)c2)cc1OC (stereo not drawn) | 80.7 | > 1400 µM | 642 | > 1400 µM | > 1400 µM | > 1400 µM | > 1400 | > 1400 µM | 915 | > 1400 µM | > 1400 | > 1400 µM | > 1400 | > 1400 µM | 112 µM | > 1400 µM | 800 | > 1400 µM | 297 µM | > 1400 µM |
| CNC(=O)c1cc2c(Oc3ccc(NC(=O)C4(C(=O)Nc5ccc(F)cc5)CC4)cc3)ccnc2cc1OC | 3.12 | > 100 µM | 0.177 | 6.26 µM | 2.77 µM | > 100 µM | 3.88 | > 100 µM | 2.05 | 5.99 µM | 2.23 | 9.13 µM | 1.78 | 6.25 µM | 2.37 µM | 6.51 µM | 2.32 | 8.96 µM | 2.17 µM | > 100 µM |
| COc1ccc(/C=C2/CCc3cc4ccc(OC)cc4[o+]c32)c(O)c1 | 15.8 | 32 µM | 16.3 | 38 µM | 2.25 µM | 6.03 µM | 2.8 | 9.74 µM | 3.04 | 45.6 µM | 2.59 | 10.7 µM | 2.39 | 8.04 µM | 14 µM | 41.1 µM | 2.71 | 27.6 µM | 10.4 µM | 30.1 µM |
| C=CCSc1nc2ccccc2c(=O)n1Cc1ccco1 | – | > 100 µM | – | > 100 µM | – | > 100 µM | – | > 100 µM | – | > 100 µM | – | > 100 µM | – | > 100 µM | – | > 100 µM | – | > 100 µM | – | > 100 µM |
| O=C1C(Cl)=C(Nc2ccccc2)C(=O)c2ccccc21 | 1.83 | 3.3 µM | 10.6 | 24.1 µM | 1.26 µM | 2.92 µM | 27.2 | > 100 µM | 0.992 | > 100 µM | 1.88 | 3.77 µM | 1.41 | 2.97 µM | 1.5 µM | 2.89 µM | 1.75 | 3.27 µM | 1.92 µM | 4.25 µM |
| c1ccc2nc3c(cc4ccccn43)nc2c1 | > 100 | > 100 µM | 49.8 | > 100 µM | 73.4 µM | > 100 µM | > 100 | > 100 µM | 52.5 | > 100 µM | 64 | > 100 µM | 6.25 | > 100 µM | 25.8 µM | > 100 µM | 1.81 | 26.1 µM | 37.6 µM | > 100 µM |
| CCN(CC)CCNC(=O)c1cn2ncnc(Oc3ccc(NC(=O)Nc4ccc(Cl)c(C(F)(F)F)c4)c(F)c3)c2c1C | 1.61 | 3.18 µM | 1.66 | 3.07 µM | 1.46 µM | 2.89 µM | 1.99 | 3.87 µM | 0.343 | 1.09 µM | 1.44 | 3.16 µM | 2.1 | 3.63 µM | 1.75 µM | 3.15 µM | 1.85 | 3.5 µM | 1.62 µM | 3.17 µM |
| CCC1=C[C@@H]2CN(C1)Cc1c([nH]c3ccccc13)[C@@](C(=O)OC)(c1cc3c(cc1OC)N(C)[C@H]1[C@@](O)(C(=O)OC)[C@H](OC(C)=O)[C@]4(CC)[C@@H]5C[C@@H]5CN5CC[C@]31[C@@H]54)C2 | – | 7.53 µM and 15.6 µM | < 0.005 | < 0.005 µM and 0.011 µM | 0.0162 µM and 0.0881 µM | 6.21 µM and 16 µM | < 0.005 | 5.05 µM and 11.6 µM | < 0.005 | – | < 0.005 | 0.00546 µM and 0.0282 µM | – | 7.7 µM and 12.6 µM | < 0.005 µM and 0.017 µM | 0.327 µM and 1.77 µM | – | 6.87 µM and 14.5 µM | < 0.005 µM and 0.0492 µM | 10.2 µM and 38.4 µM |
| O=C(NC12CC3CC(CC(C3)C1)C2)C(=O)c1c[nH]c2ccc(Cl)cc12 | – | > 100 µM | – | 65.2 µM | – | > 100 µM | – | > 100 µM | – | > 100 µM | – | > 100 µM | – | > 100 µM | – | > 100 µM | – | > 100 µM | – | > 100 µM |
| NC(=O)c1cccc(Nc2nccc(Nc3cccc(F)c3)n2)c1 | 12.2 | > 25 µM | 9.82 | > 25 µM | 7.69 µM | > 25 µM | 7 | > 25 µM | 7.1 | > 25 µM | 6.73 | > 17.9 µM | 4.49 | 22.3 µM | 4.9 µM | > 16.3 µM | 6.21 | > 21.1 µM | 10.6 µM | > 25 µM |
| CC(CC(=O)Nc1ccc(NC(=O)CC(C)N=NC(N)=S)cc1)N=NC(N)=S (stereo not drawn) | – | > 100 µM | – | > 100 µM | – | > 100 µM | – | > 100 µM | – | > 100 µM | – | > 100 µM | – | > 100 µM | – | > 100 µM | – | > 100 µM | – | > 100 µM |
| CCCCCCCCCCN=C(c1ccc(N(C)C)cc1)c1ccc(N(C)C)cc1 | 16.5 | 66.2 µM | 0.63 | 13.7 µM | 0.365 µM | > 100 µM | 0.437 | 24.5 µM | 0.211 | > 46.8 µM | 0.933 | 15.7 µM | 2.39 | 33 µM | 0.67 µM | 18.4 µM | 0.917 | > 100 µM | 1.58 µM | > 75.4 µM |
| CN(C)Cc1c[nH]c2c(NCCN)c3c(c(NCCN)c12)C(=O)c1ccccc1C3=O | 6.18 | > 23.8 µM | 2.49 | 8.45 µM | 6.97 µM | 20 µM | 8.04 | 26.8 µM | – | > 100 µM | 7.36 | – | 8.58 | 26 µM | 3.86 µM | 9.14 µM | 2.1 | 10.5 µM | 2.22 µM | 8.99 µM |
| CC1(c2ccccc2)CC(c2ccccc2)=NO1 (stereo not drawn) | – | > 100 µM | – | > 100 µM | – | > 100 µM | – | > 100 µM | – | > 100 µM | – | > 100 µM | – | > 100 µM | – | > 100 µM | – | > 100 µM | – | > 100 µM |
| Cc1ccc(S(=O)(=O)N/N=C(\c2nc3ccc([N+](=O)[O-])cc3[nH]c2=O)C(O)c2ccccc2Cl)cc1 (stereo not drawn) | – | > 100 µM | – | > 100 µM | – | > 100 µM | – | > 100 µM | – | > 100 µM | – | > 100 µM | – | > 100 µM | – | > 100 µM | – | > 100 µM | – | > 100 µM |
| C[n+]1c2ccccc2cc2c(CNC(CCCN=C(N)N)C(=O)O)cccc21 (stereo not drawn) | 1.98 | 3.9 µM | 5.03 | 17.5 µM | 0.551 µM | 1.44 µM and 2.52 µM | 3.42 | 5 µM and 13.9 µM | 0.22 | 0.468 µM and 0.582 µM | – | 0.686 µM | 10.2 | 2.43 µM and 22 µM | 5.33 µM | 17.8 µM | 4.09 | 19.1 µM | 4.19 µM | 18.4 µM |
| COCCOCCOCc1n(Cc2ccc3ccccc3n2)c2ccccc2[n+]1Cc1ccc2ccccc2c1 | 0.293 | 0.877 µM | 0.804 | 2.58 µM | 3.48 µM | 13.6 µM | 0.424 | 1.56 µM | 0.273 | 1.07 µM | 0.281 | 0.876 µM | 2.29 | 11.2 µM | 0.357 µM | 1.16 µM | 0.351 | 1.66 µM | 0.386 µM | 10.3 µM |
| CC1(C)N=C(N)N=C(N)N1c1ccc(OCC(=O)Nc2ccccc2)c(Cl)c1 | > 25.4 | > 100 µM | 0.702 | > 100 µM | 72.3 µM | > 100 µM | 0.0748 | > 100 µM | 0.515 | > 51.6 µM | 18.3 | > 100 µM | > 100 | > 100 µM | 1.08 µM | > 100 µM | 0.688 | > 100 µM | 2.96 µM | > 100 µM |
| C=C1CC2(OC1=O)C(=O)N(CCCN1C(=O)C3(CC(=C)C(=O)O3)c3ccccc31)c1ccccc12 (stereo not drawn) | 1.66 | 3.95 µM | 13.2 | 26 µM | 0.956 µM | 2.55 µM | 3.94 | 18.5 µM | 0.33 | 1.35 µM | 0.52 | 2.03 µM | 1.53 | 2.97 µM | 4.96 µM | 16.7 µM | 1.32 | 2.68 µM | 2.34 µM | 6.14 µM |
| CC(=O)NNc1nc(C)c(C(=O)NNC(=O)C(=O)Nc2nc3ccc([N+](=O)[O-])cc3s2)s1 | – | > 100 µM | – | > 100 µM | – | > 100 µM | – | > 100 µM | – | > 72.2 µM | – | > 100 µM | – | > 100 µM | – | > 81.5 µM | – | > 83.7 µM | – | > 100 µM |
| COc1ccc(Nc2nc3ccccc3nc2-c2cccs2)cc1 | – | > 100 µM | – | > 100 µM | – | > 100 µM | – | > 100 µM | – | > 100 µM | – | > 100 µM | – | > 100 µM | – | > 100 µM | – | > 100 µM | – | > 100 µM |

Reference: PubChem BioAssay (NCI)
